{"source": "patent US10900089B2", "about": "“Methods for predicting drug responsiveness in cancer patients” (Oncology Venture ApS, priority 2017, dated 2021)", "key": {"breast cancer": {"test_system": "breast cancer", "assay": "Clinical trial of 137 breast cancer patients treated with epirubicin (progression free survival, DRP validation)", "type": "in vivo, human", "from_the_text": "The biomarkers of sensitivity and resistance identified in Example 2 and shown in Tables 3 and 4 have been validated in a clinical trial of 137 breast cancer patients treated with epirubicin. Patients were examined every 9 to 12 weeks by CT scan and clinical evaluation. After patient informed consent, mRNA was isolated from formalin fixed paraffin embedded tumor tissue from diagnostic biopsies and analyzed using Affymetrix arrays. Blinded predictions of epirubicin efficacy were compared to clinical data collected retrospectively from patient medical records. Statistical analysis was performed using Cox proportional hazards model adjusted for treatment line. The primary endpoint was progression free survival (PFS). Median time to progression was 9.3 months (95% CI: 7.2-13.2). Of the 137 patients, four received epirubicin more than once.\nThe estimated hazard ratio was 0.56 (90% CI: 0.35-0.89) comparing two patients with DRP score differing by 50 percentage points. The estimated median time to progression for a patient with a DRP value of 25% was 7 months versus 13 months for a patient with a DRP value of 75%. No interaction with previous adjuvant chemotherapy was observed (p=0.98)."}, "NCI60 cancer cell lines": {"test_system": "NCI60 cancer cell lines", "assay": "NCI60 growth assay: growth inhibition (GI50) profiles of therapeutic agents and their similarity", "type": "cell-based, human", "procedure": "The human tumor cell lines of the cancer screening panel may be grown in RPMI 1640 medium containing 5% fetal bovine serum and 2 mM L-glutamine. Cells may be inoculated into 96 well microtiter plates in 100 μL at plating densities ranging from 5,000 to 40,000 cells/well depending on the doubling time of individual cell lines. After cell inoculation, the microtiter plates may be incubated at 37° C., 5% CO2, 95% air and 100% relative humidity for 24 hours prior to addition of experimental agent (e.g., an anthracycline, such as doxorubicin, epirubicin, daunorubicin, or idarubicin, or an anthracycline-containing liposome, such as a doxorubicin-containing liposome (e.g., 2B3-101)). […]\nFollowing agent addition (e.g., an anthracycline, such as doxorubicin, epirubicin, daunorubicin, or idarubicin, or an anthracycline-containing liposome, such as a doxorubicin-containing liposome (e.g., 2B3-101)), the plates may be incubated for an additional 48 h at 37° C., 5% CO2, 95% air, and 100% relative humidity. […] Bound stain may be subsequently solubilized with 10 mM trizma base, and the absorbance may be read on an automated plate reader at a wavelength of 515 nm. […] Percentage growth inhibition may be calculated as: [(Ti−Tz)/(C−Tz)]×100 for concentrations for which Ti>/=Tz [(Ti−Tz)/Tz]×100 for concentrations for which Ti<Tz […]"}}}
{"compound": "COc1cccc2c1C(=O)c1c(O)c3c(c(O)c1C2=O)C[C@@](O)(C(=O)CO)C[C@@H]3O[C@H]1C[C@H](N)[C@@H](O)[C@H](C)O1", "note": "[epirubicin]", "values": [{"measurement": "Median time to progression", "setting": "breast cancer; 137 breast cancer patients treated with epirubicin", "value": 9.3, "unit": "months"}, {"measurement": "estimated median time to progression", "setting": "breast cancer; patient with a DRP value of 25%", "value": 7, "unit": "months"}, {"measurement": "estimated median time to progression", "setting": "breast cancer; patient with a DRP value of 75%", "value": 13, "unit": "months"}, {"measurement": "anti-tumor activity compared with doxorubicin", "setting": "NCI60 cancer cell lines", "value": "nearly identical to that of doxorubicin"}]}
{"compound": "CC(=O)[C@]1(O)Cc2c(O)c3c(c(O)c2[C@@H](O[C@H]2C[C@H](N)[C@H](O)[C@H](C)O2)C1)C(=O)c1ccccc1C3=O", "note": "[idarubicine, idarubicin]", "values": [{"measurement": "effect on the NCI60 tumor cell lines in multidimensional scaling plot of growth inhibition profiles", "setting": "NCI60 cancer cell lines; NCI60 growth assay, FIG. 1", "value": "slightly different effect on the NCI60 tumor cell lines"}]}
